# Assay results as given in patent publication US8993768B2, “Tropolone compounds for treating or preventing retroviral infection” (The United States of America, as represented by the …, priority 2011, dated 2015).
# Where two headings read alike, the source gives them in different places.
# Tests used:
# [1] = target: T1, HIV-1 RNase H (p66/p51 HIV-1 RT) (Human immunodeficiency virus type 1 group M subtype B, UniProt P04585); assay: High throughput RNase H assay on sequence-independent RNA/DNA hybrid; format: biochemical; conditions: read-out: In vitro IC50
# T1 construct: RT is a p66/p51 heterodimer comprised of asymmetrically-organized subunits processed from the 165 kDa gag/pol polyprotein precursor; (His)6; made in house; host or cells: Escherichia coli
# Method: IC50 values were determined as previously reported (Budihas, S. R., et al., Nucleic Acids Res., 33(4):1249-56 (2005)), using an 18-nucleotide 3′-flourescein-labeled RNA annealed to a complementary 18-nucleotide 5′-dabsyl-labeled DNA. […] The reaction was initiated by adding 1 μl of 100 mM MgCl2 to 9 μl of mixture containing 4 ng enzyme, 200 nM substrate, 20 μM α-hydroxytropolones in 50 mM Tris, pH 8.0, 80 mM KCl, 2 mM DTT, and 10% DMSO at 37° C., and quenched with 10 μl of a gel-loading buffer after 10 minutes. Hydrolysis products were fractionated by denaturing polyacrylamide gel electrophoresis and visualized by fluorescent imaging (Typhoon Trio+, GE Healthcare, Piscataway, N.J.). […]
# [2] = tested on: HIV-1 virus strain RF in CEM-SS cells; assay: HIV-1 cytopathicity assay; format: cell-based; conditions: for EC50: read-out: Virus Replication EC50; for Virus Replication EC50, protective effect class: tested up to 50 μM
# Method: This assay was conducted as previously reported (Weislow, O, S., et al., J. Natl. Cancer Inst., 81(8):577-86 (1989)). Samples were dissolved in DMSO at 10 mM and diluted to a final high concentration of 50 μM in the 96-well assay plate, with 2-fold dilutions made to a low concentration of about 0.78 μM. All samples were tested in duplicate. The HIV-1 virus strain RF was used to infect CEM-SS cells. Compound cytotoxicity was measured in the same assay plate using uninfected cells. Regression analysis was used to estimate the effective concentration (EC50) as well as the cytotoxic concentration (CC50).
# uninfected CEM-SS cells = assay: Compound cytotoxicity in uninfected cells (same assay plate); format: cell-based; conditions: for CC50: uninfected CEM-SS cells, read-out: Virus Replication CC50; for cytotoxicity (in words): up to a concentration of 50 μM
# Method: (§1) All samples were tested in duplicate. The HIV-1 virus strain RF was used to infect CEM-SS cells. Compound cytotoxicity was measured in the same assay plate using uninfected cells. Regression analysis was used to estimate the effective concentration (EC50) as well as the cytotoxic concentration (CC50).
# [3] = as above; format: cell-based; conditions: human, uninfected CEM-SS cells; read-out: Virus Replication CC50
# Method: as §1
# HIV-1 RT RNase H = target: T2, HIV-1 RT RNase H (Human immunodeficiency virus type 1 group M subtype B, UniProt P04585); assay: Cleavage of the HIV-1 polypurine tract (PPT) primer, PPT/U3 junction; format: biochemical; conditions: 20 μM inhibitor
# T2 construct: RT is a p66/p51 heterodimer comprised of asymmetrically-organized subunits processed from the 165 kDa gag/pol polyprotein precursor; (His)6; made in house; host or cells: Escherichia coli
# Method: FIG. 2A depicts a schematic model of RNA/DNA substrate, indicating the RNase H cleavage site at the PPT/U3 junction (< >). The PPT is indicated by the shaded box. FIG. 2B depicts the quantification of PPT cleavage data. All inhibitors were evaluated at 20 μM.
# IC50 values were determined as previously reported (Budihas, S. R., et al., Nucleic Acids Res., 33(4):1249-56 (2005)), using an 18-nucleotide 3′-flourescein-labeled RNA annealed to a complementary 18-nucleotide 5′-dabsyl-labeled DNA. […] The reaction was initiated by adding 1 μl of 100 mM MgCl2 to 9 μl of mixture containing 4 ng enzyme, 200 nM substrate, 20 μM α-hydroxytropolones in 50 mM Tris, pH 8.0, 80 mM KCl, 2 mM DTT, and 10% DMSO at 37° C., and quenched with 10 μl of a gel-loading buffer after 10 minutes. Hydrolysis products were fractionated by denaturing polyacrylamide gel electrophoresis and visualized by fluorescent imaging (Typhoon Trio+, GE Healthcare, Piscataway, N.J.).
# Since the high-throughput RNase H assay examines non-specific, “polymerase-independent” RNase H activity defined by the spatial separation of the DNA polymerase and RNase H active site of HIV-1 RT (Gopalakrishnan, V., et al., Proc. Natl. Acad. Sci. USA, 89(22):10763-7 (1992)), an examination of whether α-hydroxytropolones altered cleavage specificity on a more biologically-relevant substrate, namely the polypurine tract (PPT) primer, which must be processed from the RNA/DNA replication intermediate to initiate (+) strand DNA synthesis.
# [4] = HIV-1 RNase H enzymatic activity, sequence-independent RNA/DNA hybrid
# [5] = Human immunodeficiency virus 1, CEM-SS, HIV-1 RF
Compound,"IC50 [1, 4]",protection against the cytopathic effect of the virus (in words) ([2]; HIV-1 RF),CC50 (uninfected CEM-SS cells),cytotoxicity (in words) (uninfected CEM-SS cells),"EC50 [2, 5]",CC50 [3],inhibition at 20 µM (HIV-1 RT RNase H; read-out: effectiveness in inhibiting PPT/U3 cleavage),"Virus Replication EC50, protective effect class ([2]; HIV-1 RF)",IC50 [1],EC50 ([2]; HIV-1 RF),inhibition of PPT/U3 cleavage (in words) (HIV-1 RT RNase H),"EC50 ([2]; Human immunodeficiency virus 1, HIV-1 RF)"
"Cc1cc(O)c(=O)c(O)c2c1CC(C(C)(O)CO)CC2 (mixture of isomers) [Compound 12, 2-(1,2-Dihydroxy-1-methyl-ethyl)-5,7-dihydroxy-9-methyl-1,2,3,4-tetrahydrobenzocyclohepten-6-one]",1.9 µM,no protection,> 50 µM,not cytotoxic,,,,,,,,
"Cc1cc(O)c(=O)c(O)c2c1CC(C(C)(O)CSCc1ccccc1)CC2 (mixture of isomers) [Compound 8, 2-(2-Benzylthio-1-hydroxy-1-methyl-ethyl)-5,7-dihydroxy-9-methyl-1,2,3,4-tetrahydrobenzocyclohepten-6-one]",1.3 µM,showed protection,,,~4.2 µM,17.4 µM,,,,,,
"CCS(=O)(=O)CC(C)(O)C1CCc2c(c(C)cc(O)c(=O)c2O)C1 (mixture of isomers) [Compound 9, 2-(2-Ethanesulfonyl-1-hydroxy-1-methyl-ethyl)-5,7-dihydroxy-9-methyl-1,2,3,4-tetrahydrobenzocyclohepten-6-one]",0.26 µM,slight protection,,,,10.4 µM,~100%,"<50% (<50%=protective effect less than 50% of control, i.e. weak activity)",,,,
"Cc1cc(O)c(=O)c(O)c2c1CC(C(C)O)CC2 (mixture of isomers) [Compound 13, 5,7-Dihydroxy-2-(1-hydroxy-ethyl)-9-methyl-1,2,3,4-tetrahydrobenzocyclohepten-6-one]",0.75 µM,showed protection,,,6.9 µM,26.1 µM,,,,,,
"CC(C)c1ccc(O)c(=O)c(O)c1 [β-Thujaplicinol, reference compound]",,no protection,2.3 µM,,,,,,0.21 µM,2.3 µM,,
"Cc1cc(O)c(=O)c(O)c2c1CC(C(C)(O)CS(=O)(=O)c1ccccc1)CC2 (mixture of isomers) [Compound 11, 2-(2-benzenesulfonyl-1-hydroxy-1-methyl-ethyl)-5,7-dihydroxy-9-methyl-1,2,3,4-tetrahydrobenzocyclohepten-6-one]",0.59 µM,showed protection,,,21.2 µM,> 50 µM,,,,,ineffective,
"Cc1cc(O)c(=O)c(O)c2c1CC(C(C)NCc1ccccc1)CC2 (mixture of isomers) [Compound 14, 2-(1-Benzylamino-ethyl)-5,7-Dihydroxy-9-methyl-1,2,3,4-tetrahydrobenzocyclohepten-6-one]",1.1 µM,showed protection,,,10.6 µM,16.7 µM,,,,,less active,
"Cc1cc(O)c(=O)c(O)c2c1CC(C(C)(O)Cn1ccnc1)CC2 (stereo not drawn) [Compound 2, 5,7-Dihydroxy-2-(1-hydroxy-2-imadazol-1-yl-1-methyl-ethyl)-9-methyl-1,2,3,4-tetrahydro benzocyclohepten-6-one]",,showed protection,,,,> 50 µM,,,,,less active,42.1 µM
"Cc1cc(O)c(=O)c(O)c2c1CC(C(C)(O)CN1CCCCC1)CC2 (mixture of isomers) [Compound 1, 5,7-Dihydroxy-2-(1-hydroxy-1-methyl-2-piperidin-1-yl-ethyl)-9-methyl-1,2,3,4-tetrahydro benzocyclohepten-6-one]",0.93 µM,showed protection,,,10.2 µM,> 50 µM,,,,,,
"Cc1cc(O)c(=O)c(O)c2c1CC(C(C)(O)CSc1ccccc1)CC2 (mixture of isomers) [Compound 7, 5,7-Dihydroxy-2-(1-hydroxy-1-methyl-2-phenylthio-ethyl)-9-methyl-1,2,3,4-tetrahydrobenzocyclohepten-6-one]",0.91 µM,showed protection,,,11.5 µM,17.8 µM,,,,,,
"Cc1cc(O)c(=O)c(O)c2c1CC(C(C)(O)CNCc1ccccc1F)CC2 (mixture of isomers) [Compound 4, 2-[2-(2-Fluoro-benzylamino)-1-hydroxy-1-methyl-ethyl]-5,7-dihydroxy-9-methyl-1,2,3,4-tetrahydrobenzocyclohepten-6-one]",1.4 µM,no protection,,not cytotoxic,,> 50 µM,,,,,less active,
"CCN(CC)CC(C)(O)C1CCc2c(c(C)cc(O)c(=O)c2O)C1 (mixture of isomers) [Compound 3, 2-(2-Diethylamino-1-hydroxy-1-methyl-ethyl)-5,7-dihydroxy-9-methyl-1,2,3,4-tetrahydrobenzocyclohepten-6-one]",0.49 µM,slight protection,,,,> 50 µM,,"<50% (<50%=protective effect less than 50% of control, i.e. weak activity)",,,ineffective,
"CCSCC(C)(O)C1CCc2c(c(C)cc(O)c(=O)c2O)C1 (mixture of isomers) [Compound 6, 2-(2-Ethylthio-1-hydroxy-1-methyl-ethyl)-5,7-dihydroxy-9-methyl-1,2,3,4-tetrahydrobenzocyclohepten-6-one]",0.41 µM,slight protection,,,,25.8 µM,,"<50% (<50%=protective effect less than 50% of control, i.e. weak activity)",,,,
